Reference: patent US20080286388A1, “Pharmaceutical Composition and Non Dependence Coffee Comprising Edible Carboxylic Acid and/or Its Acid Salts and Coffeine” (priority 2004, published 2008)
Where two headings read alike, the source gives them in different places.

What was measured:
[1] = tested on: mouse's leaching cell solution (abdominal cavity cells), histamine release by 48/80 compound; assay: Drug inhibiting effect on histamine leaching from mouse abdominal cavity cells treated with 48/80 compound; assay type: cell-based; details: testing drug 100 μg/ml; for inhibition at 100 µg/mL: Mus musculus
Description: This is a comparative testing for drug depressing effect on the amount of leaching histamines when is treated with 48/80 (Sigma, St. MO, USA) compound.
(1). Preparation of Leaching Cell Solution from Mouse Body.
A mouse is killed and bloodletting. Then 10 ml of Locke's solution containing 0.1% bovine serum protein is injected into its abdominal cavity. After abdominal cavity being light massaged, the cavity is cut and the Locke's solution is removed. Cavity is washed with another 5 ml of Locke's solution, and this washed solution is added to the latter one. This combined solution is centrifuged at 600 rpm for 5 minutes. The sediments are washed with 5 ml of cool Locke's solution. Adding 3 ml of cold Locke's solution to the washed sediments, then a leached cell solution of abdominal cavity is obtained. (The composition of Locke's solution is: NaCL […], KCL 0.2%, CaCL2 0.15%, glucose 1.0%, in w/v, and the rest distillated water.)
(2). Drug Inhibiting Effect on the Amount of Leaching Histamines when Treated with 48/80 Compound.
1.0 ml of each of those solutions in last term is mixed with 0.3 ml of mouse's leaching cell solution and 0.5 ml of Locke's solution. This mixture is cultivated at 37° C. for 5 minutes. Then adding 0.2 ml of Locke's solution of 48/80 compound (1 mg/100 ml) and cultivated at 37° C. for 10 minutes. Then the reaction is stopped by cooling, and centrifuged at 2,500 rpm for 10 minutes. 1.7 ml of decanted solution and 0.3 ml of sediments are obtained.
0.1 ml of water and 0.2 ml of 100% trichloroacetic acid are added to the decanted solution. 1.5 ml of Locke's solution and 0.2 ml of 100% trichloroacetic acid are added to the sediments washed solution. They are cultivated at room temperature for 30 minutes. After cultivation, the mixtures are centrifuged at 3,000 rpm for 15 minutes, respectively. 0.35 ml of each of the former two solutions is sampled. In each sample, 1.65 ml of water, 0.4 ml of 1N NaOH and 0.1 ml of 0.5% OPT (o-phthalic aldehyde) in methanol are added and cultivated at room temperature for 4 minutes. The reaction is stopped by adding 0.2 ml of 2M citric acid. And finally, determine the amount of released histamines in the tested solution by fluorescence method. By the analysis, results of the inhibiting rate of histamines could be calculated.
Locke's solution is instead of each drug in control group, and instead of both drug and 48/80 compound solution in blank group.
The histamine releasing rate (A) can be calculated by following equation. […] Where (Hs) is the total amount of histamine in the decanted solution, and (Hr) is the total amount of histamine in the sediment. (A)=[(Hs)/{(Hs)+(Hr)}]×100%. Then the inhibiting rate is:
=100−[(A−A in blank group)/(A−A in control group)]×100%.

[2] = tested on: person; assay: Tests for increase the ability of learning and memory; assay type: in vivo, human; details: Homo sapiens, po; three pieces of 600 mg, average of four tests before and after ingesting; read-out: Increase rate (%) of memory ability
Description: A person administrates see a random series of 100 numbers, typed by PC, for 10 minutes and memory it. Then recite and write down the memorized number series. To check the recited series with the original one to see how many numbers are correct. In each testing at least has 10 minutes interval, and repeat four times. […] Each kind of drugs testing is done in half day, morning or afternoon only. The testing results were counted by one correct number for one point. Make the average value of four times testing of before and after drug ingesting, respectively. The increase of learning or memory ability is calculated by following equation and listed in Table 14: Rate of increase of memory ability=[(average value of four time testing before ingesting drug)−(average value of four times testing after ingesting drug)]×100%/(average value of four time testing before ingesting drug)

[3] = adding 5% of coffee extract, read-out: inhibiting rate (%) (adding 5% of coffee extract)
[4] = non adding coffee extract, read-out: Inhibiting rate (%) (non adding coffee extract)

Compound | inhibiting rate (%) (adding 5% of coffee extract) ([1]; adding 5% of coffee extract) | Inhibiting rate (%) (non adding coffee extract) ([1]; non adding coffee extract) | inhibition at 100 µg/mL [1, 3] [%] | inhibition at 100 µg/mL [1, 4] [%] | change in vivo at 1800 mg [2] [%]
O=C(O)CC(O)C(=O)O.[K] (stereo not shown) [potassium hydrogen malate] | 100 | 100 |  |  | 
CCCCCCC(O)C(=O)O (stereo not drawn) [α-hydroxy octanoic acid] |  |  | 100 | 100 | 300
O=C([O-])/C=C\C(=O)O.[Na+] [sodium hydrogen maleate] | 100 | 100 |  |  | 
O=C([O-])/C=C/C(=O)O.[K+] [potassium hydrogen fumate] | 100 | 100 |  |  | 
O=C(O)CC(O)(CC(=O)O)C(=O)[O-].[Na+] [sodium dihydrogen citrate] | 100 | 100 |  |  | 
O=C([O-])C(O)C(O)C(=O)O.[Na+] (stereo not shown) [sodium hydrogen tartrate] | 100 | 100 |  |  | 
CCC(=O)O [propionic acid] |  |  | 100 | 100 | 296
O=C([O-])CCC(=O)O.[K+] [potassium hydrogen succinate] | 100 | 100 |  |  | 
O=C([O-])CC(O)C(=O)O.[Na+] (stereo not shown) [sodium hydrogen malate] | 100 | 100 |  |  | 
O=C(O)/C=C\C(=O)O [Maleic acid] |  |  |  |  | 370
O=C([O-])CC(O)(CC(=O)O)C(=O)O.[K+] [potassium dihydrogen citrate] | 100 | 100 |  |  | 
Diphenhydramine citrate [reference compound] | 55.5 | 37.5 |  |  | 
